Measurements: US20220274947A1, “NOVEL HETEROARYL-TRIAZOLE COMPOUNDS AS PESTICIDES” (Bayer Aktiengesellschaft, priority 2019, published 2022)

What was measured:
Assay type in all cases: in vivo
[1] = system: Aedes aegypti strain MONHEIM; experiment: Aedes aegypti test (AEDSAE surface treatment & contact assay); conditions: exposure 30 minutes, 24 hours after contact, read-out: efficacy (mortality); for mortality at 4 mg/m2: surface concentration 4 mg/m^2, glazed tile; for mortality at 20 mg/m2: surface concentration 20 mg/m^2, glazed tile
Procedure, shortened: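 Compound dissolved in acetone (2 mg/ml) with 2000 ppm rapeseed oil methyl ester, pipetted onto glazed tile and dried. Adult mosquitoes exposed on the surface for 30 min; percent mortality scored 24 h after contact.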

[2] = system: Anopheles funestus strain FUMOZ-R; experiment: Anopheles funestus test (ANPHFU surface treatment & contact assay); conditions: exposure 30 minutes, 24 hours after contact, read-out: efficacy (mortality); for mortality at 20 mg/m2: surface concentration 20 mg/m^2, glazed tile; for mortality at 4 mg/m2: surface concentration 4 mg/m^2, glazed tile
Procedure, shortened: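 Adult FUMOZ-R mosquitoes were exposed 30 min to glazed tiles treated with compound in acetone plus 2000 ppm rapeseed oil methyl ester, after solvent evaporation. Percent mortality was scored 24 h after contact.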

Myzus persicae [3] = experiment: Myzus persicae oral test; conditions: 120 h, read-out: activity (mortality)
Procedure, shortened: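 Percent mortality was recorded at day 5, where 0% means no aphids killed. Compound prepared from an acetone concentrate diluted in water and combined with IPL41 medium containing sugar was offered to mixed-stage green peach aphids, which sucked it through a parafilm seal.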

[4] = system: Musca domestica strain WHO—N; experiment: Musca domestica test (MUSCDO surface treatment & contact assay); conditions: exposure 30 minutes, 24 hours after contact, read-out: efficacy (mortality); for mortality at 4 mg/m2: surface concentration 4 mg/m^2, glazed tile; for mortality at 20 mg/m2: surface concentration 20 mg/m^2, glazed tile
Procedure, shortened: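 Compound dissolved in acetone (2 mg/ml) with 2000 ppm rapeseed oil methyl ester and pipetted onto glazed tile; after acetone evaporation, adult flies exposed to dried surface for 30 minutes. Mortality (%) scored 24 hours after contact.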

Rhipicephalus microplus = experiment: Rhipicephalus (Boophilus) microplus dip test (BOOPMI Dip); conditions: 168 h, application rate 100 ppm, engorged adult female ticks, after 7 days, read-out: activity (efficacy: 100% means all eggs are infertile)
Experimental: Rhipicephalus (Boophilus) Microplus—Dip Test (BOOPMI Dip)
Test Animal: cattle ticks (Rhipicephalus microplus) strain parkhurst, SP-resistant Solvent: dimethyl sulfoxide
To produce a suitable preparation of active compound, 10 mg of active compound are dissolved in 0.5 mL solvent, and the concentrate is diluted with water to the desired concentration.
This compound solution is pipetted into tubes. 8-10 engorged, adult, female cattle ticks (Rhipicephalus microplus) are placed in perforated tubes. These tubes are immersed in the aqueous compound solution until the ticks are completely moistened. After the liquid has drained off, the ticks are transferred to a filter paper in a plastic tray and stored in a climate chamber.
After 7 days egg deposition of fertile eggs is monitored. Eggs where fertility is not visible are stored in a climate chamber till hatching after about 42 days. An efficacy of 100% means all eggs are infertile; 0% means all eggs are fertile.

Rhipicephalus sanguineus = Rhipicephalus sanguineus in-vitro contact test, adult brown dog ticks (RHIPSA Cont); conditions: 48 h, after 48 hours, read-out: activity (efficacy: 100% means all ticks are dead or moribund); for pest or weed control at 1 µg/cm2, 100 g/ha: application rate 1 μg/cm^2 (=100 g/ha); for pest or weed control at 5 µg/cm2, 500 g/ha: application rate 5 μg/cm^2 (=500 g/ha)
Procedure, shortened: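 Compound in acetone was coated onto the inner walls of glass tubes and dried by rotation before adult brown dog ticks were exposed. Efficacy was scored at 48 h. Ticks unable to climb away from a 45–50 °C heating plate within 5 min counted as dead or moribund.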

Myzus persicae [5] = experiment: Myzus persicae spray test; conditions: in Brassica rapa, foliar, 120 h; for mortality at 100 g/ha: read-out: activity (mortality), application rate 100 g/ha, spray, Chinese cabbage leaf disks, after 5 days
Procedure, shortened: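 Compound in acetone/DMF solvent diluted in water with 1000 ppm alkylarylpolyglycol ether emulsifier, sprayed onto Chinese cabbage leaf disks infested with all instars of Myzus persicae. Mortality (%) scored after 5 days.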

| Structure (SMILES) | mortality at 4 mg/m2 [1] | mortality at 20 mg/m2 [1] | mortality at 20 mg/m2 [2] | mortality at 0.8 ppm (Myzus persicae [3]) | mortality at 4 ppm (Myzus persicae [3]) | mortality at 4 mg/m2 [4] | mortality at 20 mg/m2 [4] | pest or weed control at 100 ppm (Rhipicephalus microplus) | pest or weed control at 1 µg/cm2, 100 g/ha (Rhipicephalus sanguineus) | pest or weed control at 5 µg/cm2, 500 g/ha (Rhipicephalus sanguineus) | mortality at 100 g/ha (Myzus persicae [5]) | mortality at 4 mg/m2 [2] | mortality at 500 g/ha (Myzus persicae [5]; read-out: activity (mortality), application rate 500 g/ha, spray, Chinese cabbage leaf disks, after 5 days) |
| --- | --- | --- | --- | --- | --- | --- | --- | --- | --- | --- | --- | --- | --- |
| Cc1nc([C@H](C)NC(=O)c2cc(Br)cc(OC(F)(F)F)c2)n(-c2ccc(C#N)cn2)n1 [II-47] | 80 to 100% | 80 to 100% | 80 to 100% | 100% | 100% | 80 to 100% | 80 to 100% | 80% | 100% | 100% | 100% | – | – |
| Cc1nc([C@H](C)NC(=O)c2cc(Cl)cc(Br)c2)n(-c2ccc(C#N)cn2)n1 [II-50] | 80 to 100% | 80 to 100% | – | 100% | 100% | 80 to 100% | 80 to 100% | 100% | 100% | 100% | 100% | 80 to 100% | – |
| Cc1nc([C@H](C)NC(=O)c2cc(Br)cc(Br)c2)n(-c2ccc(C#N)cn2)n1 [II-52] | 80 to 100% | 80 to 100% | 80 to 100% | 100% | 100% | 80 to 100% | 80 to 100% | – | 100% | 100% | 90% | 80 to 100% | – |
| Cc1nc([C@H](C)NC(=O)c2cc(C#N)cc(C(F)(F)F)c2)n(-c2ccc(C#N)cn2)n1 [II-53] | 80 to 100% | 80 to 100% | – | 100% | 100% | 80 to 100% | 80 to 100% | 100% | 80% | 100% | 100% | – | – |
| Cc1nc([C@H](C)NC(=O)c2cc(Br)cc(C#N)c2)n(-c2ccc(C#N)cn2)n1 [II-54] | 80 to 100% | 80 to 100% | – | 100% | 100% | 80 to 100% | 80 to 100% | 80% | 100% | 100% | 90% | – | – |
| Cc1nc([C@H](C)NC(=O)c2cncc(C(F)(F)F)c2)n(-c2ccc(C#N)cn2)n1 [II-63] | 80 to 100% | 80 to 100% | – | – | 100% | – | 80 to 100% | 100% | 100% | 100% | 100% | – | – |
| C[C@H](NC(=O)c1cc(C(F)(F)F)cc(C(F)(F)F)c1)c1ncnn1-c1ccc(C(=O)N(C)CC2CC2)cn1 [II-73] | – | – | – | – | 100% | – | – | 100% | 100% | 100% | 100% | – | 100% |
| C[C@H](NC(=O)c1cc(C(F)(F)F)cc(C(F)(F)F)c1)c1ncnn1-c1ccc(C(N)=O)cn1 [II-81] | 80 to 100% | 80 to 100% | 80 to 100% | 100% | 100% | – | 80 to 100% | – | – | – | 90% | 80 to 100% | – |
| Cc1nc([C@H](C)NC(=O)c2cc(C(F)(F)F)cc(C(F)(F)F)c2)n(-c2ccc(C(=O)N(C)C3CC3)cn2)n1 [II-96] | 80 to 100% | 80 to 100% | – | – | 100% | 80 to 100% | 80 to 100% | 100% | 100% | 100% | 90% | – | – |
| CCN(C)C(=O)c1ccc(-n2nc(C)nc2[C@H](C)NC(=O)c2cc(C(F)(F)F)cc(C(F)(F)F)c2)nc1 [II-97] | – | 80 to 100% | – | – | 100% | 80 to 100% | 80 to 100% | 100% | 100% | 100% | 100% | – | – |
